According to PubChem BioAssay AID1963868 (Molecular Pharmacology Branch, DTP, NCI, 2024):
pIC50: −log10 of the molar value.

System: KRAS PDC tumor spheroids (HUVEC+MSC), viability
Experiment: Anticancer human tumor 254851-301-R-J1-PDC patient-derived colon carcinoma cell line growth inhibition [KRAS2]
Settings: for pIC50: curve of first compound; for viability, T/C: stronger effect = lower value
From the text: Multicellular complex tumor spheroid response to RAS pathway inhibitors in combination with a targeted agents in patient-derived cell lines with oncogenic KRAS variants from multiple cancer types
A high-throughput screen of multi-cell type tumor spheroids was designed to identify active combinations of targeted small molecules and KRAS pathway inhibitors. Complex spheroids include a stromal component modeled by human endothelial cells (HUVEC) and fibroblasts modeled by human mesenchymal stem cells (MSCs). The concentration ranges selected for each drug and investigational agent were based upon clinically achievable concentrations if the clinical Cmax of the agent was known.
Compounds. The drugs and investigational agents: BI-3406 (NSC825286), BAY-293 (NSC824723), batoprotafib (TNO155; NSC825523), sotorasib (AMG 510; NSC818433), MRTX1257 (NSC819558), elimusertib (BAY 1895344; NSC800525), molibresib (GSK525762; NSC774829), temuterkib (LY3214996; NSC803410), venetoclax (NSC766270), alisertib (NSC759677), olaparib (NSC753686), talazoparib (NSC767125), erdafitinib (NSC781556), ipatasertib (NSC767898), cabozantinib (NSC761068), nintedanib (NSC756659), abemaciclib (NSC768073), docetaxel (NSC628503), trametinib (NSC758246), and sapanisertib (NSC764658) were obtained from the National Cancer Institute (NCI) Developmental Therapeutics Program Chemical Repository. The FDA-approved anticancer drug set is available from the Developmental Therapeutics Program. […] The stock solutions were prepared in dimethyl sulfoxide (DMSO, Sigma-Aldrich, St. Louis, MO, cat. D2650) at 800-fold the tested concentration and stored at -70 degrees C prior to their use. All drugs and investigational agents were tested over a range starting from a high concentration at or near the clinical Cmax and decreasing in half-log increments. If the clinical Cmax for an agent had not been determined, the highest concentration tested was 10 microM.
Cell Culture. All cells were maintained in an incubator at 37 degrees C and 5% CO2 with 95% humidity. The PDC lines were cultured according to standard operating procedures established by the NCI PDMR (https://pdmr.cancer.gov/sops/default.htm). Briefly, all PDCs were thawed and cultured in Matrigel-coated flasks prepared with a working solution of 1X Ham's F-12 nutrient mix, without supplementation (Invitrogen, Waltham, MA, cat. 11765054), 100 U/mL penicillin-streptomycin (Invitrogen, cat. 15140122), and 2.5% Matrigel (Corning Inc., Corning, NY, cat. 354248) for the first three passages. All PDCs were cultured in complete DMEM/F-12 media containing advanced DMEM/F-12 (Invitrogen, cat. 12634028), 4.9% defined fetal bovine serum, heat inactivated (HyClone Laboratories Inc., Logan, UT, cat. SH30070.03HI), 389 ng/mL hydrocortisone (Sigma-Aldrich, cat. H4001), 9.7 ng/mL human EGF recombinant protein (Invitrogen, cat. PHG0313), 23.4 microg/mL adenine (Sigma-Aldrich, cat. A2786), 97.3 U/mL penicillin-streptomycin (Invitrogen, cat. 15140122), 1.9 mM L-glutamine (Invitrogen, cat. 25030081), and 9.7 microM Y-27632 dihydrochloride (Tocris Bioscience, Bristol, United Kingdom, cat. 1254). The PDCs were cultured in complete DMEM/F12 media without 9.7 microM Y-27632 dihydrochloride for at least two passages prior to the screen. The established cell line HOP-62 was cultured in RPMI 1640 medium, HEPES (Invitrogen, cat. 22400105) with 10% defined fetal bovine serum (HyClone Laboratories Inc., cat. SH30070.03) and 2 mM L-glutamine (Invitrogen, cat. 25030081). The pooled donor HUVEC were cultured in endothelial cell growth medium 2 (PromoCell, Heidelberg, Germany, cat. C-22011) and the hMSC were cultured in mesenchymal stem cell growth medium 2 (PromoCell, cat. C-28009). For all experiments, HUVEC and hMSC were used at passages </=5, while the malignant cell lines were used at passages </=15. […]
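Further: spheroids exposed to compounds for seven days before readout.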
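Wherever viability, T/C is given: 100% = DMSO vehicle control luminescence of the spheroids.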

Work on CC1COCCN1c1cc(-c2ccnn2C)c2ccnc(-c3ccn[nH]3)c2n1 (stereo not given) + CC1OCC2(CCN(c3cnc(Sc4ccnc(N)c4Cl)c(N)n3)CC2)C1N yielded a pIC50 (second compound 0.1 µM) of 6.52, a pIC50 (second compound 0.316 µM) of 6.49 and a pIC50 (second compound 1 µM) of 6.50. It also gave a pIC50 (second compound 3.16 µM) of 6.78, a pIC50 (second compound 10 µM) of 6.82 and a viability, T/C (second compound 0.1 µM, first compound 0.01 µM) of 114%. For the same compound, the viability, T/C (second compound 0.1 µM, first compound 0.0316 µM) was 107%, the viability, T/C (second compound 0.1 µM, first compound 0.1 µM) was 75.5% and the viability, T/C (second compound 0.1 µM, first compound 0.316 µM) was 48.6%. For the same compound, the viability, T/C (second compound 0.1 µM, first compound 1 µM) was 36.4%, the viability, T/C (second compound 0.1 µM, first compound 3.16 µM) was 24.5% and the viability, T/C (second compound 0.316 µM, first compound 0.01 µM) was 90.5%. For the same compound, the viability, T/C (second compound 0.316 µM, first compound 0.0316 µM) was 101%, the viability, T/C (second compound 0.316 µM, first compound 0.1 µM) was 83.5% and the viability, T/C (second compound 0.316 µM, first compound 0.316 µM) was 49.8%. It also gave a viability, T/C (second compound 0.316 µM, first compound 1 µM) of 33%, a viability, T/C (second compound 0.316 µM, first compound 3.16 µM) of 24.4% and a viability, T/C (second compound 1 µM, first compound 0.01 µM) of 88.7%. It also gave a viability, T/C (second compound 1 µM, first compound 0.0316 µM) of 89.8%, a viability, T/C (second compound 1 µM, first compound 0.1 µM) of 79% and a viability, T/C (second compound 1 µM, first compound 0.316 µM) of 47.1%. It also gave a viability, T/C (second compound 1 µM, first compound 1 µM) of 34.6%, a viability, T/C (second compound 1 µM, first compound 3.16 µM) of 21.2% and a viability, T/C (second compound 3.16 µM, first compound 0.01 µM) of 69.2%. For the same compound, the viability, T/C (second compound 3.16 µM, first compound 0.0316 µM) was 74.8%, the viability, T/C (second compound 3.16 µM, first compound 0.1 µM) was 57% and the viability, T/C (second compound 3.16 µM, first compound 0.316 µM) was 39.2%. For the same compound, the viability, T/C (second compound 3.16 µM, first compound 1 µM) was 23.1%, the viability, T/C (second compound 3.16 µM, first compound 3.16 µM) was 21.9% and the viability, T/C (second compound 10 µM, first compound 0.01 µM) was 67.1%. The viability, T/C (second compound 10 µM, first compound 0.0316 µM) was 65.8%, the viability, T/C (second compound 10 µM, first compound 0.1 µM) was 58.3% and the viability, T/C (second compound 10 µM, first compound 0.316 µM) was 35.8%. The viability, T/C (second compound 10 µM, first compound 1 µM) was 27.2% and the viability, T/C (second compound 10 µM, first compound 3.16 µM) was 20%.
